Test results published in PMC13198257, “An aerosolized dual-action autotaxin inhibitor-PPARγ agonist for the treatment of pulmonary fibrosis” (Cell Reports Medicine, 2026).

System: lung gene expression
Experiment: RNA sequencing of lung tissue (BLM/EL244 vs BLM)
Format: in vivo, mouse
Conditions: lung tissue, BLM/EL244 vs BLM
Method: RNA quality was assessed using an Agilent TapeStation 4150 with the High Sensitivity […] ScreenTape (Agilent), according to the manufacturer’s protocols. For library preparation, the QuantSeq 3’mRNA-Seq Library Prep Kit (Lexogen) was used according to manufacturer’s instructions. Briefly, 500 ng of RNA from each sample was used for first-strand synthesis, followed by RNA template removal, and second-strand synthesis initiated by random primers. In-line barcodes were introduced at this step, and this was followed by magnetic bead-based purification. The resulting libraries were amplified for 15 cycles and re-purified, with quantity and quality assessed on a Qubit 4 Fluorometer with the Invitrogen Qubit dsDNA HS Assay and an Agilent Tapestation 4150 with the High Sensitivity D1000 assay kit, respectively. The quantified libraries were pooled equimolarly; 50ng of total library mix was used for Adapter Conversion PCR Amplification using the Universal Library Conversion Kit (App-A), Version: V1.0 (MGI Tech Co., Ltd.), according to the manufacturer’s instructions.
The quantity and quality of the purified adapter conversion PCR (AC-PCR) product were evaluated on a Qubit 4 Fluorometer with the Invitrogen Qubit dsDNA HS Assay and on an Agilent Tapestation 4150 with the High Sensitivity D1000 assay kit, respectively. This was followed by DNA denaturation, Single-Strand Circularisation, Enzymatic Digestion, Enzymatic Digestion Product Cleanup and Quality Control steps on 1 pmol of AC-PCR product, according to the Universal Library Conversion Kit (App-A) User Manual (Version: A3).
Finally, 60 fmol of ssCirDNA were used for DNB preparation and sequencing on a DNBSEQ-G400 platform at the BSRC Alexander Fleming Genomics Facility, using a G400 App-A FCS SE100 High-throughput Sequencing Set (MGI Tech Co., Ltd.), according to the manufacturer’s instructions.
Alignment of the FASTQ files was performed against the mouse genome build mm10 using a custom Bash script.[143] Read counting on the 3′ UTRs and differential expression analysis were conducted using the metaseqR2 bioconductor package.[144] Genes corresponding to the following biotypes were excluded: polymorphic_pseudogene, processed_transcript, pseudogene, IG_V_pseudogene, misc_RNA, IG_C_gene, IG_J_gene, IG_D_gene, IG_LV_gene, TR_V_gene, TR_V_pseudogene, TEC, and processed_pseudogene. Gene counts were normalized with DESEQ[145] through metaseqR2. Genes with more than 10 counts in at least 50% of the samples were kept for further processing. For differential expression analysis, the PANDORA algorithm[146] was used to estimate a meta p-value integrating the results from the DESEQ, DESEQ2,[147] edgeR,[148] limma,[149] NBPSeq,[150] and NOISeq[151] algorithms. All additional parameters were set to default values.
Pathway enrichment analysis was performed for the Gene Ontology Biological process (BP) and Molecular Function (MF) terms through GeneCodis 4.[152] The volcano plots, scatterplots, Venn diagrams, and dot plots were generated using the ggplot2 Bioconductor package.

Compound: O=C1NC(=O)C(Cc2ccc(OCCC3CCN(C(=O)OCc4cc(Cl)cc(Cl)c4)CC3)cc2)S1 (stereo not shown) [EL244, 3,5-dichlorobenzyl 4-(2-(4-((2,4-dioxothiazolidin-5-yl)methyl)phenoxy)ethyl)piperidine-1-carboxylate]
- Cdk19 log2 nFC: -0.64
- Cdk19 nFC: 0.64
- Cdkn3 log2 nFC: -1.68
- Cdkn3 nFC: 0.31
- Cenpe log2 nFC: -1.70
- Cenpe nFC: 0.31
- Cenpf log2 nFC: -2.20
- Cenpf nFC: 0.22
- Cenph log2 nFC: -2.04
- Cenph nFC: 0.24
- Cenpk log2 nFC: -1.51
- Cenpk nFC: 0.35
- Cenpn log2 nFC: -1.74
- Cenpn nFC: 0.30
- Cenps log2 nFC: -1.80
- Cenps nFC: 0.29
- Cfp log2 nFC: -0.83
- Cfp nFC: 0.56
- Chl1 log2 nFC: -3.49
- Chl1 nFC: 0.09
- Chsy3 log2 nFC: -1.56
- Chsy3 nFC: 0.34
- Ckap2l log2 nFC: -2.06
- Ckap2l nFC: 0.24
- Ckap2 log2 nFC: -2.44
- Ckap2 nFC: 0.18
- Ckap4 log2 nFC: -0.63
- Ckap4 nFC: 0.65
- Ckb log2 nFC: -0.61
- Ckb nFC: 0.65
- Cks1b log2 nFC: -1.54
- Cks1b nFC: 0.34
- Clca3a1 log2 nFC: -2.06
- Clca3a1 nFC: 0.24
- Cldn4 log2 nFC: -1.99
- Cldn4 nFC: 0.25
- Clmp log2 nFC: -0.78
- Clmp nFC: 0.58
- Clspn log2 nFC: -1.79
- Clspn nFC: 0.29
- Clu log2 nFC: -0.81
- Clu nFC: 0.57
- Cmtm3 log2 nFC: -0.60
- Cmtm3 nFC: 0.66
- Col1a1 log2 nFC: -2.02
- Col1a1 nFC: 0.25
- Col3a1 log2 nFC: -1.54
- Col3a1 nFC: 0.34
- Col4a1 log2 nFC: -0.75
- Col4a1 nFC: 0.59
- Col4a2 log2 nFC: -0.64
- Col4a2 nFC: 0.64
- Col5a1 log2 nFC: -1.52
- Col5a1 nFC: 0.35
- Col5a2 log2 nFC: -1.48
- Col5a2 nFC: 0.36
- Col5a3 log2 nFC: -1.53
- Col5a3 nFC: 0.35
- Col6a2 log2 nFC: -0.67
- Col6a2 nFC: 0.63
- Col6a3 log2 nFC: -0.77
- Col6a3 nFC: 0.59
- Cped1 log2 nFC: 0.63
- Cped1 nFC: 1.55
- Cthrc1 log2 nFC: -2.00
- Cthrc1 nFC: 0.25
- Ctnnbip1 log2 nFC: -0.62
- Ctnnbip1 nFC: 0.65
- Ctsb log2 nFC: -0.75
- Ctsb nFC: 0.59
- Ctsh log2 nFC: -0.63
- Ctsh nFC: 0.64
- Cxcl9 log2 nFC: -1.62
- Cxcl9 nFC: 0.32
- Cxcl10 log2 nFC: -1.90
- Cxcl10 nFC: 0.27
- Cxcl12 log2 nFC: -0.67
- Cxcl12 nFC: 0.63
- Cxcl13 log2 nFC: -1.42
- Cxcl13 nFC: 0.37
- Cyth4 log2 nFC: -0.71
- Cyth4 nFC: 0.61
- Cytip log2 nFC: 0.63
- Cytip nFC: 1.54
- Ddr1 log2 nFC: -0.66
- Ddr1 nFC: 0.63
- Dnmt1 log2 nFC: -0.84
- Dnmt1 nFC: 0.56
- Dtl log2 nFC: -1.94
- Dtl nFC: 0.26
- Dtx4 log2 nFC: -0.70
- Dtx4 nFC: 0.61
- E2f8 log2 nFC: -1.57
- E2f8 nFC: 0.34
- Ect2 log2 nFC: -1.89
- Ect2 nFC: 0.27
- Efnb2 log2 nFC: 0.61
- Efnb2 nFC: 1.53
- Eln log2 nFC: -2.07
- Eln nFC: 0.24
- Emid1 log2 nFC: -0.78
- Emid1 nFC: 0.58
- Emilin1 log2 nFC: -0.84
- Emilin1 nFC: 0.56
- Emp1 log2 nFC: -0.70
- Emp1 nFC: 0.62
- Enc1 log2 nFC: -0.80
- Enc1 nFC: 0.57
- Epas1 log2 nFC: 0.67
- Epas1 nFC: 1.59
- Epb41 log2 nFC: 0.61
- Epb41 nFC: 1.52
- Espl1 log2 nFC: -1.71
- Espl1 nFC: 0.31
- Evi2a log2 nFC: -0.82
